This series is described as follows: gradient 5% acetonitrile 3 min, to 50% in 2 min, to 85% in 15 min, held 3 min, 100 µL/min. The note with it: column: Zorbax Extend-C18 2.1 x 50 mm; eluents: water / acetonitrile, 0.1% formic acid. The method in brief:
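Using water and acetonitrile that each contained 0.1% formic acid, mixtures of ~100 pure standards were separated at 100 μL/min on a Zorbax Extend-C18 column (2.1 × 50 mm, 1.8 μm). The HPLC fed a quadrupole time-of-flight mass spectrometer working in positive and negative ionization mode, with dead and dwell volumes of 40 μL and 900 μL. Data were acquired over 3 months. Retention time was read from computationally picked adduct peaks after manual inspection of each.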
For `Cc1nnc(N2CCN(C(=O)Nc3ccc4c(c3)OCCO4)CC2)c2nn(-c3ccccc3)c(C)c12`, the RP-LC retention time was 679 s.

`COc1cccc(CNC(=O)Nc2ccc3nc(N4CCN(C)CC4)cc(C)c3c2)c1` had an RP-LC retention time of 580 s.

The compound `Cc1oc(-c2[nH]ncc2C(=O)N(C)C)cc1S(=O)(=O)Nc1ccc(Cl)cc1` displayed an RP-LC retention time of 703 s.

For `Cc1nc(-c2nnn(-c3ccc(Cl)cc3)c2C)sc1C(=O)NC1CCCCC1`, the RP-LC retention time came out at 1160 s.

Regarding `CCOC(=O)CC1(NC(=O)N2CCN(c3nc4ccccc4nc3C(F)(F)F)CC2)CCCCC1`, the RP-LC retention time stood at 1230 s.

The compound `N#Cc1ccccc1Cn1cnc2nc3c(cc2c1=O)CCCC3` returned an RP-LC retention time of 733 s.

Regarding `CC1CCCCN1CCNC(=O)c1ccc2c(c1)nc1n2CCN(Cc2ccccc2)C1=O` (centres undefined), the RP-LC retention time was determined as 601 s.

As for `O=C(NC1CCCCC1)c1nc(Cn2c(=O)oc3ccc(Cl)cc32)no1`, the RP-LC retention time was 981 s.

Compound `CN(C)C/C=C/C(=O)Nc1ccc(C(=O)Nc2cccc(Nc3ncc(Cl)c(-c4c[nH]c5ccccc45)n3)c2)cc1` yielded an RP-LC retention time of 800 s.

As to `C=Cc1ccc(Cn2nc3ccc(S(=O)(=O)N4CCC(C)CC4)cn3c2=O)cc1`, the RP-LC retention time is 1060 s.

`CCn1cc(CCN2CCN(C(=O)c3ccc(Br)cc3)CC2)c2cccnc21` came in with an RP-LC retention time of 629 s.

Take `CC(C)Cn1c(=O)c(N2CCN(S(=O)(=O)c3ccccc3)CC2)nc2ccncc21`: the RP-LC retention time came out at 612 s.

On to `CCS(=O)(=O)N1CCCc2cc(C(=O)Nc3ccc(Br)cc3)ccc21`, for which the RP-LC retention time stood at 1030 s.

Regarding `Cc1cccc(CNC(=O)CCC2CCN(c3cc(NC4CC4)ncn3)CC2)c1`, the RP-LC retention time stood at 672 s.

For `CC(C)(CO)NC(=O)Cc1ccc(NC(=O)CSc2ccc(F)cc2)cc1`, the RP-LC retention time turned out to be 681 s.

`Cc1ccc(Cn2cccc2C(=O)C(=O)N2CCN(c3ccccn3)CC2)cc1`: the RP-LC retention time was determined as 690 s.

Compound `O=C(c1ccco1)N1CCC(c2nc(C3CC3)n[nH]2)CC1` registered an RP-LC retention time of 521 s.

As for `O=c1n(Cc2cccc(Br)c2)nc2c(S(=O)(=O)N3CCCCCC3)cccn12`, the RP-LC retention time turned out to be 1010 s.

For the compound `Cc1cc(-c2nnc(-c3ccccc3)o2)c(C)n1CC(=O)N1CCN(c2ccccn2)CC1`, the RP-LC retention time was 649 s.

Regarding `O=C(Nc1ccc(Cl)cc1)C1CCCN(c2ncnc3c2nc2n3CCCCC2)C1` (centres undefined), the RP-LC retention time was 877 s.

In turn, `COc1ccccc1-c1noc(C2CCCN2C(=O)COc2ccccc2C)n1` (centres undefined) returned an RP-LC retention time of 939 s.

The compound `CCC(c1cccs1)N1C(=O)[C@H]2CN(S(=O)(=O)c3cc(C)ccc3C)C[C@H]2C1=O` (some centres undefined) had an RP-LC retention time of 1090 s.

Regarding `O=C(Cn1nc2c3cc(-c4ccc(Cl)cc4)nn3ccn2c1=O)N1CCCCC1`, the RP-LC retention time was 924 s.

In turn, `COC1C(=O)N(c2cccc(F)c2)C12CCNCC2` (centres undefined) registered an RP-LC retention time of 604 s.

`CCOC(=O)c1[nH]c(C)c(CCC(=O)N2CCC(C(=O)NCc3ccc(OC)cc3OC)CC2)c1C`: the RP-LC retention time amounted to 799 s.

For `COc1ccc(CC(=O)N2CCCC2COc2ccc(C(=O)N3CCCC3)cc2)cc1` (centres undefined), the RP-LC retention time turned out to be 824 s.

`Cc1c(C(=O)N2CCN(c3ccc(F)cc3)CC2)sc2nc[nH]c(=O)c12`: the RP-LC retention time was 706 s.

`Cn1nc(C(=O)N2CCCC(C(=O)N3CCCC3)C2)c2c1CCN(C(=O)c1ccccc1Cl)C2` (centres undefined) yielded an RP-LC retention time of 662 s.

`Cc1ccc(-c2noc(Cc3nnc(-c4ccc(C)c(C)c4)o3)n2)cc1` registered an RP-LC retention time of 1200 s.

Regarding `O=C(c1csc(N2CCN(c3ccc(Cl)cc3)CC2)n1)N1CCOCC1`, the RP-LC retention time is 942 s.

`CCOCCCNC(=O)C(C)n1c(=O)c(C(F)(F)F)nc2ccccc21` (centres undefined): the RP-LC retention time came to 929 s.

Regarding `COC(=O)c1ncn2c1C(=O)N(Cc1ccccc1)C(C)(C(=O)NCc1ccc(C)cc1)C2` (centres undefined), the RP-LC retention time is 734 s.

`CCC(=O)N1CCc2cc(-c3ccc(C(=O)NC(C)C)cc3)ccc21` came in with an RP-LC retention time of 832 s.

The compound `CC(C)(C)C(=O)Nc1ccc2nc(N3CCN(CC(=O)N4CCCCCC4)CC3)cc(C(=O)O)c2c1` returned an RP-LC retention time of 603 s.

`CN1CCn2cc(S(=O)(=O)Nc3cc(F)cc(F)c3)cc2C1=O` displayed an RP-LC retention time of 727 s.

The compound `O=C(c1cccc2[nH]cc(CN3CCCC3)c12)N1CCN(c2ccccc2)CC1` had an RP-LC retention time of 706 s.

With `CCCCN1CC(c2nc3ccccc3n2CCOc2ccccc2OC)CC1=O` (centres undefined), the RP-LC retention time worked out at 750 s.

Consider `O=C(CC1(O)C(=O)Nc2c(Cl)ccc(Cl)c21)c1ccc(Cl)cc1Cl` (centres undefined), for which the RP-LC retention time came out at 879 s.

`O=C(NCCC1CCN(C(=O)Nc2cc(F)ccc2F)CC1)C1CCCC1`: the RP-LC retention time was 769 s.

Compound `Cc1ccc(NC(=O)C2CCCN(C(=O)C3Sc4ccccc4NC3=O)C2)cc1` (centres undefined) yielded an RP-LC retention time of 741 s.

The compound `CN(C)c1ccc(/C=C(\C#N)C(=O)c2ccccc2)cc1` had an RP-LC retention time of 1100 s.

As for `COCc1nnc(C(=O)Nc2ccc(C(=O)NCCc3c[nH]c4ccc(OC)cc34)cc2)s1`, the RP-LC retention time was 790 s.

The compound `Cc1ccc(C(=O)Nc2ccc(N3CCN(Cc4ccccc4)C3=O)nc2)s1` showed an RP-LC retention time of 847 s.

For `CC(C)CC(NC(=O)Cc1cccs1)C(=O)Nc1nc2ccccc2[nH]1` (centres undefined), the RP-LC retention time worked out at 716 s.

As to `COc1ccc(-c2ncc(NC(=O)C(C)C)cn2)cc1`, the RP-LC retention time is 802 s.

Compound `Cc1ccsc1C(=O)N1CCN(c2cc(-c3ccccc3)[nH]n2)CC1` gave an RP-LC retention time of 744 s.

`CN1C(=O)c2cccnc2Sc2cc(NC(=O)C3CCOC3)ccc21` (centres undefined): the RP-LC retention time is 619 s.

As for `CCc1cccc(NC(=O)c2cc3n(n2)CC(C)(C(=O)NC2CCCC2)N(CC)C3=O)c1` (centres undefined), the RP-LC retention time was 605 s.

In turn, `CCCN1C(=O)C(CC(=O)NCCN(C)C)Sc2ncccc21` (centres undefined) registered an RP-LC retention time of 588 s.

As for `COc1cccc(CN2CCc3nn(C)c(=O)n3CC2)n1`, the RP-LC retention time stood at 544 s.

Consider `O=C(Nc1cccc(Cl)c1)N1CCC(n2cnnc2C2CC2)C1` (centres undefined), for which the RP-LC retention time stood at 658 s.

With `CC(C)(C)C(=O)N1CCCC(C(=O)N2CCOCC2)C1` (centres undefined), the RP-LC retention time was found to be 625 s.

On to `O=C(CSc1nnc(-c2ccccc2F)o1)NC1CCCCC1`, for which the RP-LC retention time is 782 s.

The compound `Cc1nn(-c2ccccc2)c(C)c1S(=O)(=O)N1CCC(C(=O)Nc2ccccc2)CC1` gave an RP-LC retention time of 926 s.

On to `C=CCN1C(=O)C(C(=O)N2CCOCC2)C2CC1(C)Oc1ccccc12` (centres undefined), for which the RP-LC retention time amounted to 718 s.

In turn, `CN(C)c1cccc(-c2nc(C3CC(=O)N(c4ccccc4)C3)no2)c1` (centres undefined) registered an RP-LC retention time of 1030 s.

`COc1ccccc1N1CCN(Cc2nc(-c3ccccc3)no2)CC1` registered an RP-LC retention time of 798 s.

For the compound `CC(CNC(=O)Cn1c(=O)n(C(C)C)c2ccc(S(=O)(=O)N3CCCC3)cc21)c1ccccc1` (centres undefined), the RP-LC retention time stood at 905 s.

Take `CCc1ccc(NS(=O)(=O)c2c(C)sc(C)c2-c2cc(C(F)(F)F)on2)cc1`: the RP-LC retention time was found to be 1240 s.

`CCCCOc1ccc(C(=O)Nc2nc3c(s2)CCc2ccc(OC)cc2-3)cc1` displayed an RP-LC retention time of 1360 s.

On to `COC(=O)c1ccc(C(=O)N(Cc2ccsc2)Cc2ccco2)cc1`, for which the RP-LC retention time amounted to 832 s.

In the case of `Cc1nnc2ccc(S(=O)(=O)N(Cc3ccc(F)cc3)c3ccccc3)cn12`, the RP-LC retention time was 863 s.

Turning to `CN(C1CCc2nn(CC3CC3)c(=O)n2CC1)S(=O)(=O)c1cccc(Cl)c1` (centres undefined), the RP-LC retention time worked out at 818 s.

`Cc1c(CNCc2ccco2)c(C(=O)O)c(C)n1Cc1cccc(Cl)c1`: the RP-LC retention time was found to be 702 s.

The compound `CCCN1CCc2cccc3c2[C@H]1Cc1ccc(O)c(O)c1-3` registered an RP-LC retention time of 652 s.

In turn, `CC(C)NC(=O)CCc1c(-c2ccccc2)nc2ccccn12` showed an RP-LC retention time of 595 s.

`CCN1C(=O)c2cc(C(=O)NCCCc3ccccc3)nn2CC1(C)C(=O)NC1CCCC1` (centres undefined) displayed an RP-LC retention time of 845 s.

`O=C(Nc1ccccc1)[C@@H]1OCCN(C2CC2)[C@H]1c1ccccc1` returned an RP-LC retention time of 668 s.

`O=C(CN1CCc2[nH]c3c(F)ccc(F)c3c(=O)c2C1)Nc1ccccc1Cl` came in with an RP-LC retention time of 953 s.

In turn, `O=C(NC1CCCCC1)c1ccc2ccnc(N3CCN(c4ccc(Cl)cc4)CC3)c2c1` came in with an RP-LC retention time of 986 s.

As for `COC[C@@H]1CN(c2cnccn2)C[C@H]1C(=O)NCCn1cccn1`, the RP-LC retention time came to 564 s.

Regarding `O=C(CSc1ccc(N2CCCC(C(=O)NC3CC3)C2)nn1)NCc1ccccc1` (centres undefined), the RP-LC retention time amounted to 603 s.

In turn, `COc1ccc(C2(C(=O)N3CC(n4c(C)cnc4-c4ccccc4)C3)CC2)cc1` had an RP-LC retention time of 661 s.

Consider `CCC1(O)C(=O)OCc2c1cc1n(c2=O)Cc2cc3c(N)cccc3nc2-1` (centres undefined), for which the RP-LC retention time was 632 s.

`O=C(c1cccs1)N1CCc2c([nH]c3ccccc23)C1c1ccc(Cl)cc1` (centres undefined) came in with an RP-LC retention time of 1220 s.

In the case of `O=C(Nc1cnc(N2CCN(CCOc3ccc(Cl)cc3)CC2)c(C(=O)O)c1)c1ccc(F)cc1`, the RP-LC retention time came out at 694 s.

With `CCOC(=O)N1CCC2(CC1)OC(=O)C(C)=C2C(=O)Nc1cc(OC)cc(OC)c1`, the RP-LC retention time worked out at 864 s.

Regarding `COCc1noc([C@@H]2CN(C(=O)C3CC=CC3)C[C@H]2C(N)=O)n1`, the RP-LC retention time was 609 s.

`O=C(Cn1nc2n(c1=O)CCCCC2)NCc1ccc(Cl)cc1`: the RP-LC retention time is 702 s.

Source of the values: the METLIN SMRT retention time set (Domingo-Almenara et al. 2019).
